From patent publication US11155820B2, “Target of VGSC β3 protein for prevention, treatment and diagnostic detection of cancers” (SHENYANG PHARMACEUTICAL UNIVERSITY, priority 2014, dated 2021)

What was measured:
[1] = system: hepatoma cell lines HepG2; assay: MTT assay of HepG2 cell proliferation after AGAP; format: cell-based; settings: HepG2, 40 μM, 48 h incubation, control proteins
Experimental: The cell proliferation was measured by MTT assay:took the cells in good growth condition and in logarithmic growth phase, digested with conventional trypsin, and pipetted into a single cell suspension, after counting the blood cell with blood counting chamber, the concentration was adjusted to 10^5 cells/ml (HepG2 cells), then were inoculated into 96-well plates at 100 μl per well, while set the blank hole (only added 100 μl of culture medium, without cells); cultured in 5% CO2 incubator at 37° C. for 24 h, each well was added 0.5 mg/ml MTT, 100 μl, then continued to culture for 4 h, the supernatant was discarded and 150 μl of DMSO was added to each well. The mixture was incubated at low speed for 10 min on a micro shaker, and the absorbance of each well was measured at 490 nm using a microplate reader after the crystals were fully dissolved.
(§1) Analgesic antitumoral peptide (AGAP) at […] different concentrations (0, 5, 10, 15, 20, 25, 30, 35 and 40 μM) were incubated with hepatoma cell lines HepG2 (96 well plates, 10^4 cells/well, 24 h later, AGAP was administered at different concentrations as described above, at least 3 wells were repeated for each concentration) for 48 h, the amount of the VGSC β3 subunit expressed was then detected by Western blotting using the antibody in I.10. The cell proliferation level was measured using the MTT method.

VGSC β3 subunit = assay: Western blotting of VGSC β3 subunit in HepG2 cells after AGAP; format: cell-based, human; settings: HepG2, 40 μM, 48 h incubation, control proteins
Experimental: as §1

bovine serum albumin
effect on cell proliferation [1]: nor did it affect cell proliferation
effect on the expression of the VGSC β3 subunit (VGSC β3 subunit): no effect

cytochrome C
effect on cell proliferation [1]: nor did it affect cell proliferation
effect on the expression of the VGSC β3 subunit (VGSC β3 subunit): no effect
